In patent US12729388B2, “Methods and systems for producing cellulosic ethanol by biomass saccharification and fermentation” (ZHEJIANG HUAKANG PHARMACEUTICAL CO., LTD., priority 2021, dated 2026):

System: cellulase Cellic CTec 2
Test: Validation experiment of the inhibitory effect of glucose and ethanol on the enzymatic hydrolysis reaction
Assay type: biochemical
Conditions: Group C: 50 g/L ethanol externally added, corn cob waste 15% dry substrate, cellulase 4% of dry substrate, pH 5.0~6.0, 50° C., 300 rpm
Protocol: Validation experiment of the inhibitory effect of glucose and ethanol on the enzymatic hydrolysis reaction. A reaction system was prepared using a citric acid buffer solution with a concentration of 0.1 mol/L. The citric acid buffer solution was added to a corn cob waste system in which a content of the biomass feedstock was 15% of a dry substrate, a pH of the mixture was maintained at 5.0~6.0, and cellulase […] a content of 4% of the dry substrate was added to the mixture to prepare three groups of 1 L reaction systems. [table] The three reaction systems were subjected to enzymatic hydrolysis at 50° C. for 72 hours under a condition of stirring at 300 rpm. Samples were taken from each reaction system every 12 hours to measure an amount of glucose released by the enzymatic hydrolysis, and results are shown in FIG. 3. FIG. 3 is a schematic diagram illustrating that glucose release concentration changes over time in an enzymatic hydrolysis system with external addition of glucose and ethanol according to some embodiments of the present disclosure.

- amount of glucose released during the 72-hour enzymatic hydrolysis, lower than that of the control Group A: 8%
SMILES: CCO [ethanol]
